Assay results reported in patent publication US20210395327A1, “Growth Hormone-Releasing Hormone Antagonists and Uses Thereof” (United States Government As Represented By The Department …, priority 2019, published 2021).
“Also recorded” adds a separate entry of the source. Values belong to the compound of their own block, whether it stands above or below them. Non-standard residues stand in square brackets, D forms with d. Residues, ends and D or L forms follow the SMILES beside them. *: point of attachment. Phenylacetyl(2,3,4,5,6-F5) = O=C(Cc1c(F)c(F)c(F)c(F)c1F)*; Phe(F5) = N[C@@H](Cc1c(F)c(F)c(F)c(F)c1F)C(=O)O; Phe(4-Cl) = N[C@@H](Cc1ccc(Cl)cc1)C(=O)O; hArg = N=C(N)NCCCC[C@H](N)C(=O)O; 12Ado = NCCCCCCCCCCCC(=O)O; Nle = CCCC[C@H](N)C(=O)O; Orn = NCCC[C@H](N)C(=O)O; Abu = CC[C@H](N)C(=O)O

Key:
[1] = test system: GH release from rat pituitary cells; experiment: Inhibition of GH release from rat pituitary cells in vitro (GH ELISA); type: cell-based; conditions: for Relative GH release: analogs 20 nM, then with 1 nM GHRH(1-29)NH2 for 30 minutes, Control = 1.00
Protocol: In vitro assessment of the antagonistic activity of GHRH analogs. Rats were decapitated and pituitaries were collected in pre-warmed HBSS (Hanks' Balanced Salt Solution). Tissue was then cut into small pieces and digested in HBSS medium containing 3% BSA, 50 μg/ml gentamycin and 0.5% collagenase for 50 minutes at 37° C. Cells were further dispersed by pipetting and passed through a 100 μm cell strainer with the addition of DMEM containing 50 μg/ml gentamycin. 10% horse serum and 2.5% FBS (growth medium). Cells were harvested at 475×g for 2 minutes, resuspended in fresh growth medium and seeded onto poly-D-lysine-coated 24-well plates (7 pituitaries/plate). Cells were left to recover for 4 days. Growth medium was then replaced with serum-free DMEM for 4 hours and GHRH analogs (at concentration of 20 nM) were added in DMEM containing 0.1% BSA for 30 minutes. Cells were replenished with medium containing the same concentration of the analogs and 1 nM GHRH(1-29)NH2 for 30 minutes. Medium from this step was collected, centrifuged at 800 g for 3 minutes and GH concentration was determined by ELISA (ALPCO Diagnostics, Mill Valley, Calif.) according to the manufacturer's instruction.

[2] = target: T1, membrane GHRH-receptors on human anterior pituitary cells (Homo sapiens, UniProt Q02643); experiment: Receptor binding, displacement of 125I-[His1,Nle27]-hGH-RH(1-32)NH2 on human pituitary membranes; conditions: for IC50: membrane receptors on human anterior pituitary cells, mean of two to three determinations, read-out: IC50
T1 construct: Human pituitary was purchased from the National Hormone and Peptide Program; tissue National Hormone and Peptide Program; host or cells: human pituitary (membrane fractions)
T1 sequence (Q02643 23-423): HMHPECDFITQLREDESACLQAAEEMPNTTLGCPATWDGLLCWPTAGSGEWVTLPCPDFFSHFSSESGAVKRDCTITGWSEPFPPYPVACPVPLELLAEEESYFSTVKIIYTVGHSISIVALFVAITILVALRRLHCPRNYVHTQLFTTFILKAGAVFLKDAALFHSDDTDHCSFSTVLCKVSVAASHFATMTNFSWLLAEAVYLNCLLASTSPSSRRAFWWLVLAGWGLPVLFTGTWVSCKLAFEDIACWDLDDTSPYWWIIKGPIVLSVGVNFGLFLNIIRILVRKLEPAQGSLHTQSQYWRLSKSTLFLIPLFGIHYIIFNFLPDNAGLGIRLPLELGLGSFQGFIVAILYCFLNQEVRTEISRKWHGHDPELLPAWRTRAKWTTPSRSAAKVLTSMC
Method in brief: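 Membrane fractions from human pituitary; peptides displace 125I-[His1,Nle27]-hGH-RH(1-32)NH2. IC50 is the dose giving 50% inhibition of specific binding, from duplicate tubes. Relative affinity is the ratio of test IC50 to hGH-RH(1-29)NH2 IC50.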

[3] = test system: CFPAC-1 pancreatic cancer cells; experiment: In vitro cell viability, CFPAC-1; type: cell-based, human; conditions: Table 3B; 5 μM for 72 H; MIA-602 = 1
Method in brief: (§1)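 Viability by CellTiter 96 aqueous one solution (MTS) after 72 h exposure to antagonist at 5 μM (some at 2 μM), following 24 h starvation in 0.5% FBS. Results given as percentage inhibition relative to MIA602.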

HCC827 lung cancer cells = experiment: In vitro cell viability, HCC827; type: cell-based, human; conditions: Table 3B; 5 μM for 72 H; MIA-602 = 1
Method in brief: as §1

[4] = test system: NCI-N87 stomach cancer cells; experiment: In vitro cell viability (CellTiter 96), N87; type: cell-based, human; conditions: Table 3B; 5 μM for 72 H; MIA-602 = 1
Method in brief: as §1

HT-29 colon cancer cells = experiment: In vitro cell viability, HT-29; type: cell-based, human; conditions: Table 3B; 5 μM for 72 H; MIA-602 = 1
Protocol: The inhibitory effects of the various synthesized GHRH antagonists were tested in cell proliferation assays in various human cancer cell lines including stomach cancer (KATOIII, N87), colon cancer (HT-29), urothelial cancer (J82, RT4), pancreatic cancer (PANC-1, CFPAC-1), prostatic cancer (PC3), breast cancer (MX-1, HCC1806), ovarian cancer (SK-OV-3, OVCAR-3) and lung cancer (HCC827, H460).
Cell culture. Human cancer cell lines including pancreatic (PANC-1 and CFPAC-1), lung (HCC827 and H460), stomach (NCI-N87 and KATOIII), urothelial (J82, RT4), prostatic (PC3), breast (MX-1 and HCC 1806), colorectal (HT-29), and ovarian (SK-OV-3 and OVCAR-3) were obtained from the American Type Culture Collection (ATCC) and cultured at 37° C. in a humidified 95% air/5% CO2 atmosphere in the medium recommended by ATCC.
In vitro cell viability. Cell viability was analyzed as follows: cancer cells including pancreatic (PANC-1 and CFPAC-1), lung (HCC827 and H460), stomach (NCI-N87 and KATOIII), urothelial (J82, RT4), prostatic (PC3) and breast (MX-1 and HCC 1806), colorectal (HT-29) and ovarian (SK-OV-3 and OVCAR-3) were grown on 96 well plates to ˜60% confluence, the cells were starved for 24 h in culture medium containing 0.5% FBS. Cells were then treated with GHRH antagonists MIA602 AVR compounds at concentrations of 1, 2.5 or 5 μM, or vehicle (0.1% DMSO) in quintuplicates for 72 hours. The medium was replaced every 48 hours. Cell viability was measured using CellTiter 96 aqueous one solution kit (Promega). Inhibitory effects of tested AVR compounds in comparison to that of MIA602 are presented as inhibitory potency.
Inhibitory effects of selected AVR compounds in comparison to that of MIA602 are presented as inhibitory potency (e.g., percentage of inhibition). […] The cell lines tested including lung cancer HCC827 (FIG. 2A), pancreatic cancer CFPAC-1 (FIG. 2B), stomach cancer N87 (FIG. 2C), colon cancer HT-29 (FIG. 2D), breast cancers MX-1 and HCC1806 (FIGS. 2 E, F). Based on the results of cell proliferation assay after cancer cells were treated with antagonist at concentration of 5 μM for 72H, the relative inhibitory potency of AVR antagonists in comparison to MIA-602 is summarized in Table 3 A and B. Over 60 AVR compounds were tested in 12 cancer cell lines.
Based on the results of cell proliferation assay after cancer cells were treated with antagonist at concentration of 5 µM for 72H, * at concentration of 2 µM for 72 H.

IC50 [2]: 0.09 nM
Compound: CCCC[C@H](NC(=O)[C@@H](NC(=O)[C@H](CC(=O)O)NC(=O)[C@H](CCC(N)=O)NC(=O)[C@H](CC(C)C)NC(=O)[C@H](CC(C)C)NC(=O)[C@H](CCCCN)NC(=O)[C@H](CCCNC(=N)N)NC(=O)[C@H](C)NC(=O)[C@H](CO)NC(=O)[C@H](CC(C)C)NC(=O)[C@H](CCC(N)=O)NC(=O)[C@H](CC)NC(=O)[C@H](CC(C)C)NC(=O)[C@@H](NC(=O)[C@H](CCCCN)NC(=O)[C@H](CCCNC(=N)N)NC(=O)[C@H](Cc1ccc(OC)cc1)NC(=O)[C@H](CCCCNC(=N)N)NC(=O)[C@H](C)NC(=O)[C@@H](NC(=O)[C@H](Cc1c(F)c(F)c(F)c(F)c1F)NC(=O)[C@@H](NC(=O)[C@H](C)NC(=O)[C@H](CC(=O)O)NC(=O)[C@@H](CCCNC(=N)N)NC(=O)[C@H](Cc1ccc(O)cc1)NC(=O)CCCCCCCCCCCNC(=O)Cc1c(F)c(F)c(F)c(F)c1F)[C@@H](C)CC)[C@@H](C)O)C(C)C)[C@@H](C)CC)C(=O)N[C@H](CCCNC(=N)N)C(=O)N[C@@H](CCCCNC(=N)N)C(=O)NCCCCCCCCCCCC(N)=O [AVR-352, 5FPhAC-Ada-Tyr-DArg-Asp-Ala-Ile-5FPhe-Thr-Ala-Har-Tyr(Me)-Arg-Lys-Val-Leu-Abu-Gln-Leu-Ser-Ala-Arg-Lys-Leu-Leu-Gln-Asp-Ile-Nle-DArg-Har-Ada-NH2] ({Phenylacetyl(2,3,4,5,6-F5)-12Ado}-Y[dR]DAI[Phe(F5)]TA[hArg]Y(Me)RKVL[Abu]QLSARKLLQDI[Nle][dR][hArg][12Ado]-NH2)
Relative GH release [1]: 0.72 ± 0.03 | inhibitory effects on the release of GH, compared with MIA-602 (in words) ([1]; rat pituitary cells in vitro, 20 nM): higher inhibitory effects than MIA-602 | binding affinity to membrane receptors of human pituitary cells (in words) ([2]; competitive binding, human pituitary membrane fractions): higher binding affinity in comparison to MIA-602; also recorded: highest binding affinities | In vitro relative inhibitory potency in comparison to MIA-602, CFPAC-1 [3]: 1.576 | In vitro relative inhibitory potency in comparison to MIA-602, HCC827 (HCC827 lung cancer cells): 2.01 | In vitro relative inhibitory potency in comparison to MIA-602, NCI-N87 [4]: 1.809 | In vitro relative inhibitory potency in comparison to MIA-602, HT-29 (HT-29 colon cancer cells): 1.197

IC50 [2]: 0.25 nM
Compound: CCCC[C@H](NC(=O)[C@@H](NC(=O)[C@H](CC(=O)O)NC(=O)[C@H](CCC(N)=O)NC(=O)[C@H](CC(C)C)NC(=O)[C@H](CC(C)C)NC(=O)[C@H](CCCN)NC(=O)[C@H](Cc1c[nH]cn1)NC(=O)[C@H](C)NC(=O)[C@H](CO)NC(=O)[C@H](CC(C)C)NC(=O)[C@H](CCC(N)=O)NC(=O)[C@H](CC)NC(=O)[C@H](CC(C)C)NC(=O)[C@@H](NC(=O)[C@H](CCCN)NC(=O)[C@H](Cc1c[nH]cn1)NC(=O)[C@H](Cc1c(F)c(F)c(F)c(F)c1F)NC(=O)[C@H](CCCCNC(=N)N)NC(=O)[C@H](C)NC(=O)[C@@H](NC(=O)[C@H](Cc1ccc(Cl)cc1)NC(=O)[C@@H](NC(=O)[C@H](C)NC(=O)[C@H](CC(=O)O)NC(=O)[C@@H](CCCNC(=N)N)NC(=O)[C@H](Cc1ccc(O)cc1)NC(=O)CCCCCCCCCCCNC(=O)Cc1c(F)c(F)c(F)c(F)c1F)[C@@H](C)CC)[C@@H](C)O)C(C)C)[C@@H](C)CC)C(=O)N[C@H](CCCNC(=N)N)C(=O)N[C@@H](CCCCNC(=N)N)C(=O)NCCCCCCCCCCCC(=O)NC [AVR-543, 5FPhAC-Ada-Tyr-DArg-Asp-Ala-Ile-Cpa-Thr-Ala-Har-5FPhe-His-Orn-Val-Leu-Abu-Gln-Leu-Ser-Ala-His-Orn-Leu-Leu-Gln-Asp-Ile-Nle-DArg-Har-Ada-NHCH3] ({Phenylacetyl(2,3,4,5,6-F5)-12Ado}-Y[dR]DAI[Phe(4-Cl)]TA[hArg][Phe(F5)]H[Orn]VL[Abu]QLSAH[Orn]LLQDI[Nle][dR][hArg][12Ado]-NHMe)
Relative GH release [1]: 1.10 ± 0.01 | In vitro relative inhibitory potency in comparison to MIA-602, CFPAC-1 [3]: 2.05 | In vitro relative inhibitory potency in comparison to MIA-602, HCC827 (HCC827 lung cancer cells): 0.961 | In vitro relative inhibitory potency in comparison to MIA-602, NCI-N87 [4]: 0.908 | In vitro relative inhibitory potency in comparison to MIA-602, HT-29 (HT-29 colon cancer cells): 0.999
